These results are taken from patent US20250262201A1, “COMPOUNDS AND METHODS USEFUL FOR STABILIZING PHENYLALANINE HYDROXYLASE MUTATIONS” (Agios Pharmaceuticals, Inc., priority 2022, published 2025).

This test concerns the target T1, human PAH with the R408W mutation (Homo sapiens, UniProt P00439, R408W).
T1 construct: expressed in transfected cells
T1 sequence (P00439 1-452 R408W): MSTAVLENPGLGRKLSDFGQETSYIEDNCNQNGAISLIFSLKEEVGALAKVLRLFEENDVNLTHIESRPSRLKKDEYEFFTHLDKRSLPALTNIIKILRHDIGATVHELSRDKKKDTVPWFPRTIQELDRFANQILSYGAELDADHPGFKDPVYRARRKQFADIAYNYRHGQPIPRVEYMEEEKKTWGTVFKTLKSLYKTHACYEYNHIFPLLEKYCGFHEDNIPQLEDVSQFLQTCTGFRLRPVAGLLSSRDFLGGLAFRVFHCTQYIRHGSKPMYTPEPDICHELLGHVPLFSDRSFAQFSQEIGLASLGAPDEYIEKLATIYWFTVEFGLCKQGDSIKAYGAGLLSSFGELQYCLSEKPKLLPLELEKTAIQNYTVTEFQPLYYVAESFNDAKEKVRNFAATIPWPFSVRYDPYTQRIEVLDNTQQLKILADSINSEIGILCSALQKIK
The experiment in a line: Cell Based Phenylalanine Flux Assay. Particulars: A375 cells expressing human R408W PAH; 24 hrs compound incubation; 13C-Tyrosine by LC-MS; average where tested multiple times; read-out: AC50.
What is called AC50 is the midpoint of the concentration-response curve, whichever way the signal moves. `O=C(c1nnc(-c2ccn(C(F)F)n2)o1)N1CCc2[nH]cnc2C1c1ccc2ccccc2n1` (stereo in doubt) [Example 95, (S)-(5-(1-(difluoromethyl)-1H-pyrazol-3-yl)-1,3,4-oxadiazol-2-yl)(4-(quinolin-2-yl)-6,7-dihydro-1H-imidazo[4,5-c]pyridin-5(4H)-yl)methanone]: the AC50 fell in the range of 1000 to 5000 nM. In the case of `CC(C)(O)c1nc(Br)c(C(=O)N2CCc3[nH]cnc3C2c2ccc3ccccc3n2)o1` (stereo in doubt) [Example 97, (R)-(4-bromo-2-(2-hydroxypropan-2-yl)oxazol-5-yl)(4-(quinolin-2-yl)-6,7-dihydro-1H-imidazo[4,5-c]pyridin-5(4H)-yl)methanone], the AC50 is less than 500 nM. As to `CC(C)(O)c1nc(Br)c(C(=O)N2CCc3[nH]cnc3C2c2ccc3ccccc3n2)o1` (stereo in doubt) [Example 98, (S)-(4-bromo-2-(2-hydroxypropan-2-yl)oxazol-5-yl)(4-(quinolin-2-yl)-6,7-dihydro-1H-imidazo[4,5-c]pyridin-5(4H)-yl)methanone], the AC50 was in the range of 1000 to 5000 nM. Turning to `Cc1nc([C@H](C)O)oc1C(=O)N1CCc2[nH]cnc2C1c1ccc2ccccc2n1` (stereo in doubt) [Example 99, (2-((S)-1-hydroxyethyl)-4-methyloxazol-5-yl)((R)-4-(quinolin-2-yl)-6,7-dihydro-1H-imidazo[4,5-c]pyridin-5(4H)-yl)methanone], the AC50 is 1000 to 5000 nM. As to `Cc1nc(C2(O)CCC2)oc1C(=O)N1CCc2[nH]cnc2C1c1ccc2ccccc2n1` (stereo in doubt) [Example 101, (R)-(2-(1-hydroxycyclobutyl)-4-methyloxazol-5-yl)(4-(quinolin-2-yl)-6,7-dihydro-1H-imidazo[4,5-c]pyridin-5(4H)-yl)methanone], the AC50 fell in the range of 500 to 1000 nM. On to `Cc1nc(C2(O)CCC2)oc1C(=O)N1CCc2[nH]cnc2C1c1ccc2ccccc2n1` (stereo in doubt) [Example 102, (S)-(2-(1-hydroxycyclobutyl)-4-methyloxazol-5-yl)(4-(quinolin-2-yl)-6,7-dihydro-1H-imidazo[4,5-c]pyridin-5(4H)-yl)methanone], for which the AC50 was greater than 5000 nM.

For the compound `Cc1ccc(-c2nnc(C(=O)N3CCc4[nH]cnc4C3c3ccc4ccccc4n3)o2)nc1` (stereo in doubt) [Example 103, (S)-(5-(5-methylpyridin-2-yl)-1,3,4-oxadiazol-2-yl)(4-(quinolin-2-yl)-6,7-dihydro-1H-imidazo[4,5-c]pyridin-5(4H)-yl)methanone], the AC50 fell in the range of 1000 to 5000 nM. In the case of `Cc1ccc(-c2nnc(C(=O)N3CCc4[nH]cnc4C3c3ccc4ccccc4n3)o2)nc1` (stereo in doubt) [Example 104, (R)-(5-(5-methylpyridin-2-yl)-1,3,4-oxadiazol-2-yl)(4-(quinolin-2-yl)-6,7-dihydro-1H-imidazo[4,5-c]pyridin-5(4H)-yl)methanone] it was less than 500 nM; in that of `CC(C)(F)c1nnc(C(=O)N2CCc3[nH]cnc3C2c2ccc3ccccc3n2)o1` (stereo in doubt) [Example 105, (R)-(5-(2-fluoropropan-2-yl)-1,3,4-oxadiazol-2-yl)(4-(quinolin-2-yl)-6,7-dihydro-1H-imidazo[4,5-c]pyridin-5(4H)-yl)methanone], 500 to 1000 nM. As for `CC(C)(F)c1nnc(C(=O)N2CCc3[nH]cnc3C2c2ccc3ccccc3n2)o1` (stereo in doubt) [Example 106, (S)-(5-(2-fluoropropan-2-yl)-1,3,4-oxadiazol-2-yl)(4-(quinolin-2-yl)-6,7-dihydro-1H-imidazo[4,5-c]pyridin-5(4H)-yl)methanone], the AC50 fell in the range of 1000 to 5000 nM.

`O=C(c1nnc(-c2cc(C(F)(F)F)ccn2)o1)N1CCc2[nH]cnc2C1c1ccc2ccccc2n1` (stereo in doubt) [Example 107, (R)-(4-(quinolin-2-yl)-6,7-dihydro-1H-imidazo[4,5-c]pyridin-5(4H)-yl)(5-(4-(trifluoromethyl)pyridin-2-yl)-1,3,4-oxadiazol-2-yl)methanone]: the AC50 is 500 to 1000 nM. The figure for `O=C(c1nnc(-c2cc(C(F)(F)F)ccn2)o1)N1CCc2[nH]cnc2C1c1ccc2ccccc2n1` (stereo in doubt) [Example 108, (S)-(4-(quinolin-2-yl)-6,7-dihydro-1H-imidazo[4,5-c]pyridin-5(4H)-yl)(5-(4-(trifluoromethyl)pyridin-2-yl)-1,3,4-oxadiazol-2-yl)methanone] is 1000 to 5000 nM; for `O=C(c1cn(-c2ccccn2)nc1Cl)N1CCc2[nH]cnc2C1c1ccc2ccccc2n1` (stereo in doubt) [Example 109, (R)-(3-chloro-1-(pyridin-2-yl)-1H-pyrazol-4-yl)(4-(quinolin-2-yl)-6,7-dihydro-1H-imidazo[4,5-c]pyridin-5(4H)-yl)methanone] it is 1000 to 5000 nM.

On to `O=C(c1cn(-c2ccccn2)nc1Cl)N1CCc2[nH]cnc2C1c1ccc2ccccc2n1` (stereo in doubt) [Example 110, (S)-(3-chloro-1-(pyridin-2-yl)-1H-pyrazol-4-yl)(4-(quinolin-2-yl)-6,7-dihydro-1H-imidazo[4,5-c]pyridin-5(4H)-yl)methanone], for which the AC50 is 1000 to 5000 nM. As for `Cc1nc([C@@H](C)O)oc1C(=O)N1CCc2[nH]cnc2C1c1ccc2ccccc2n1` (stereo in doubt) [Example 111, (2-((R)-1-hydroxyethyl)-4-methyloxazol-5-yl)((R)-4-(quinolin-2-yl)-6,7-dihydro-1H-imidazo[4,5-c]pyridin-5(4H)-yl)methanone], the AC50 is 500 to 1000 nM. Regarding `CC(C)(O)c1nc(Cl)c(C(=O)N2CCc3[nH]cnc3C2c2ccc3ccccc3n2)o1` (stereo in doubt) [Example 113, (R)-(4-chloro-2-(2-hydroxypropan-2-yl)oxazol-5-yl)(4-(quinolin-2-yl)-6,7-dihydro-1H-imidazo[4,5-c]pyridin-5(4H)-yl)methanone], the AC50 is less than 500 nM.

For the compound `CC(C)(O)c1nc(Cl)c(C(=O)N2CCc3[nH]cnc3C2c2ccc3ccccc3n2)o1` (stereo in doubt) [Example 114, (S)-(4-chloro-2-(2-hydroxypropan-2-yl)oxazol-5-yl)(4-(quinolin-2-yl)-6,7-dihydro-1H-imidazo[4,5-c]pyridin-5(4H)-yl)methanone], the AC50 is greater than 5000 nM. Consider `O=C(c1nnc(-c2cc[nH]n2)o1)N1CCc2[nH]cnc2C1c1ccc2ccccc2n1` (stereo in doubt) [Example 115, (R)-(5-(1H-pyrazol-3-yl)-1,3,4-oxadiazol-2-yl)(4-(quinolin-2-yl)-6,7-dihydro-1H-imidazo[4,5-c]pyridin-5(4H)-yl)methanone], for which the AC50 is less than 500 nM. With `O=C(c1nnc(-c2cc[nH]n2)o1)N1CCc2[nH]cnc2C1c1ccc2ccccc2n1` (stereo in doubt) [Example 116, (S)-(5-(1H-pyrazol-3-yl)-1,3,4-oxadiazol-2-yl)(4-(quinolin-2-yl)-6,7-dihydro-1H-imidazo[4,5-c]pyridin-5(4H)-yl)methanone], the AC50 was 1000 to 5000 nM.

Take `Cc1nc(C(C)(C)C#N)oc1C(=O)N1CCc2[nH]cnc2C1c1ccc2ccccc2n1` (stereo in doubt) [Example 117, (S)-2-methyl-2-(4-methyl-5-(4-(quinolin-2-yl)-4,5,6,7-tetrahydro-1H-imidazo[4,5-c]pyridine-5-carbonyl)oxazol-2-yl)propanenitrile]: the AC50 lay within 1000 to 5000 nM. Consider `Cc1nc(C(C)(C)C#N)oc1C(=O)N1CCc2[nH]cnc2C1c1ccc2ccccc2n1` (stereo in doubt) [Example 118, (R)-2-methyl-2-(4-methyl-5-(4-(quinolin-2-yl)-4,5,6,7-tetrahydro-1H-imidazo[4,5-c]pyridine-5-carbonyl)oxazol-2-yl)propanenitrile], for which the AC50 is less than 500 nM. For `C[C@@H](O)c1nc(C(F)F)c(C(=O)N2CCc3[nH]cnc3C2c2ccc3ccccc3n2)o1` (stereo in doubt) [Example 119, (4-(difluoromethyl)-2-((R)-1-hydroxyethyl)oxazol-5-yl)((S)-4-(quinolin-2-yl)-6,7-dihydro-1H-imidazo[4,5-c]pyridin-5(4H)-yl)methanone], the AC50 was in the range of 1000 to 5000 nM. On to `C[C@@H](O)c1nc(C(F)F)c(C(=O)N2CCc3[nH]cnc3C2c2ccc3ccccc3n2)o1` (stereo in doubt) [Example 120, (4-(difluoromethyl)-2-((R)-1-hydroxyethyl)oxazol-5-yl)((R)-4-(quinolin-2-yl)-6,7-dihydro-1H-imidazo[4,5-c]pyridin-5(4H)-yl)methanone], for which the AC50 is less than 500 nM. As to `C[C@H](O)c1nc(C(F)F)c(C(=O)N2CCc3[nH]cnc3C2c2ccc3ccccc3n2)o1` (stereo in doubt) [Example 121, (4-(difluoromethyl)-2-((S)-1-hydroxyethyl)oxazol-5-yl)((S)-4-(quinolin-2-yl)-6,7-dihydro-1H-imidazo[4,5-c]pyridin-5(4H)-yl)methanone], the AC50 is 1000 to 5000 nM.

For `C[C@H](O)c1nc(C(F)F)c(C(=O)N2CCc3[nH]cnc3C2c2ccc3ccccc3n2)o1` (stereo in doubt) [Example 122, (4-(difluoromethyl)-2-((S)-1-hydroxyethyl)oxazol-5-yl)((R)-4-(quinolin-2-yl)-6,7-dihydro-1H-imidazo[4,5-c]pyridin-5(4H)-yl)methanone], the AC50 is less than 500 nM. The figure for `O=C(c1cn[nH]c1Cl)N1CCc2[nH]cnc2C1c1ccc2ccccc2n1` (stereo in doubt) [Example 123, (S)-(5-chloro-1H-pyrazol-4-yl)(4-(quinolin-2-yl)-6,7-dihydro-1H-imidazo[4,5-c]pyridin-5(4H)-yl)methanone] is 1000 to 5000 nM.
